Assays:
[1] = tested on: Clearfield sunflower variety A; experiment: Greenhouse spray injury rating (Example 5); type: in vivo; settings: variety A, 14 DAT
Excerpt: (§1) Methods: Sunflower lines S4897, Clearfield® sunflower varieties A, B, C and a conventional non-Clearfield variety were sprayed with three rates of imazamox (Raptor™), 100, 200 and 300 gm ai/ha plus 0.5% Sun It II and two rates of imazapyr (Arsenal™) 160 and 360 gm ai/ha plus 0.5% Sun It II when the plants were at the two to three leaf stage. Ratings were taken at 14 days after application (DAT) for injury. Injury was rated on a scale from 0 to 9 where […] to 9=dead plant. Twelve plants were sprayed per herbicide/rate treatment. Statistical analysis was conducted with STATGRAPHICS Plus 5.0 by using ANOVA and LSD procedures.
(§2) Results: After plants were sprayed, it was realized that a height difference between S4897 and other sunflower varieties would have impacted the actual herbicide dose that was delivered. The spray boom height had been calibrated against S4897 and since the other varieties were taller and closer to the boom they would have received a greater dose of herbicide. Rates were recalibrated for the other varieties to determine the approximate dose they would have received. Assessments were made as presented in Table 2 since it was not possible to make a direct rate comparison due to the effect of the height. For example injury scores were compare for S4897 treated imazamox rate 100 gm ai/ha to the other varieties treated at 75 gm ai/ha. The treatment dose of 300 gm ai/ha for line S4897 was equivalent to the treatment of 200 gm ai/ha for the other varieties, which approximately was 300 gm ai/ha.

[2] = tested on: Clearfield sunflower variety B; experiment: Greenhouse spray injury rating (Example 5); type: in vivo; settings: variety B, 14 DAT
Excerpt: as §1, §2

[3] = tested on: Clearfield sunflower variety C; experiment: Greenhouse spray injury rating (Example 5); type: in vivo; settings: variety C, 14 DAT
Excerpt: as §1, §2

[4] = tested on: Sunflower line S4897; experiment: Greenhouse spray injury rating (Example 5); type: in vivo; settings: 14 DAT
Excerpt: as §1, §2

[5] = tested on: conventional non-Clearfield variety; experiment: Greenhouse spray injury rating (Example 5); type: in vivo; settings: non-Clearfield, 14 DAT
Excerpt: as §1, §2

[6] = tested on: AHAS of S4897 sunflower plants (Ala107-to-Thr); experiment: AHAS activity inhibition (Example 5); type: biochemical, Helianthus annuus; settings: higher concentration of imazamox; compared to a Clearfield sunflower and conventional non Clearfield variety (FIG. 7)
Method: AHAS activity analysis was also conducted by selecting actively growing young leaves from plants that were not sprayed with herbicide at approximately four weeks after planting.

[7] = tested on: S4897 sunflower plants; experiment: Greenhouse spray treatment with imazamox (FIG. 3, FIG. 4); type: in vivo, Helianthus annuus; settings: imazamox 100 or 200 g ai/ha, evaluated 17 days after application
Method: (§3) The S4897 and IMISUN-1 sunflower plants were spray-treated with imazamox at rate of 200 g ai/ha. […] The photograph was taken a few days after the plants were spray treated.
(§4) FIG. 4 is graphical illustration of herbicide injury in a greenhouse test following the spray treatment of IMISUN-1, wild-type, and S4897 sunflower plants with imazamox at either 100 (light columns) or 200 g ai/ ha (dark columns). […] Herbicide injury was evaluated 17 days after the imazamox application.

[8] = tested on: wild-type sunflower plants; experiment: as above; type: in vivo, Helianthus annuus; settings: imazamox at either 100 or 200 g ai/ha
Method: as §3, §4

[9] = tested on: S4897 plants; parameters: species or system Helianthus annuus; settings: in vivo
Method: In field trials in Argentina, S4897 plants were tested for resistance to imazapic. […] This trial had single row plots and was treated on a windy day, so the actual herbicide dose reaching the plants was likely less than was applied.

SMILES: COCc1cnc(C2=NC(C)(C(C)C)C(=O)N2)c(C(=O)O)c1 (stereo not shown) [imazamox]
- Injury (scale 0 to 9) ([1]; imazamox 75 gm ai/ha (100/75)): 4.3 c
- Injury (scale 0 to 9) ([1]; imazamox 150 gm ai/ha (column 200/150)): significantly in juried and had stopped growing
- Injury (scale 0 to 9) ([1]; imazamox 150 gm ai/ha (column 200/150), listed as Imazamox): 4.6 c
- Injury (scale 0 to 9) ([1]; imazamox 300 gm ai/ha): 6.5 days
- Injury (scale 0 to 9) ([2]; imazamox 75 gm ai/ha (100/75)): 1.9 b
- Injury (scale 0 to 9) ([2]; imazamox 150 gm ai/ha): 4.8 c
- Injury (scale 0 to 9) ([2]; imazamox 300 gm ai/ha): 5.3 c
- Injury (scale 0 to 9) ([3]; imazamox 75 gm ai/ha (100/75)): 1.8 b
- Injury (scale 0 to 9) ([3]; imazamox 150 gm ai/ha): 2.9 b
- Injury (scale 0 to 9) ([3]; imazamox 300 gm ai/ha): 4.6 b
- Injury (scale 0 to 9) ([4]; imazamox 100 gm ai/ha + 0.5% Sun It II, 0 no injury, 9 dead plant): 0.5 a
- Injury (scale 0 to 9) ([4]; imazamox 200 gm ai/ha): little to no injury
- Injury (scale 0 to 9) ([4]; imazamox 200 gm ai/ha, listed as Imazamox): 0.8 a
- Injury (scale 0 to 9) ([4]; imazamox 300 gm ai/ha): very little injury
- Injury (scale 0 to 9) ([4]; imazamox 300 gm ai/ha, listed as Imazamox): 0.8 a
- Injury (scale 0 to 9) ([5]; imazamox 75 gm ai/ha (100/75)): 7.2 days
- Injury (scale 0 to 9) ([5]; imazamox 150 gm ai/ha): 8.2 days
- Injury (scale 0 to 9) ([5]; imazamox 300 gm ai/ha): 8.7 e
- inhibition of AHAS activity [6]: less inhibition
- herbicide injury (resistance or tolerance vs IMISUN-1 and wild-type) [7]: significantly greater resistance or tolerance
- survival after spray treatment [8]: did not survive

SMILES: Cc1cnc(C2=NC(=O)C(C)(C(C)C)N2)c(C(=O)O)c1 (stereo not shown) [imazapic]
- resistance to imazapic compared with IMISUN-1 [9]: clearly superior
